Measured values taken from paper PMC12491715 (Acta Pharmaceutica Sinica. B, 2025).
Several values for one entry are separate records, joined by “and”; a condition that tells them apart may be missing. Equal entries are not always repeated. Where two headings read alike, the source gives them in different places.

Tests used:
[1] = molecular target: hBChE (Homo sapiens, UniProt P06276); test: hBChE binding kinetics: carbamoylation and decarbamoylation, initial velocity measurements; assay type: biochemical
Sequence of hBChE (P06276 29-602): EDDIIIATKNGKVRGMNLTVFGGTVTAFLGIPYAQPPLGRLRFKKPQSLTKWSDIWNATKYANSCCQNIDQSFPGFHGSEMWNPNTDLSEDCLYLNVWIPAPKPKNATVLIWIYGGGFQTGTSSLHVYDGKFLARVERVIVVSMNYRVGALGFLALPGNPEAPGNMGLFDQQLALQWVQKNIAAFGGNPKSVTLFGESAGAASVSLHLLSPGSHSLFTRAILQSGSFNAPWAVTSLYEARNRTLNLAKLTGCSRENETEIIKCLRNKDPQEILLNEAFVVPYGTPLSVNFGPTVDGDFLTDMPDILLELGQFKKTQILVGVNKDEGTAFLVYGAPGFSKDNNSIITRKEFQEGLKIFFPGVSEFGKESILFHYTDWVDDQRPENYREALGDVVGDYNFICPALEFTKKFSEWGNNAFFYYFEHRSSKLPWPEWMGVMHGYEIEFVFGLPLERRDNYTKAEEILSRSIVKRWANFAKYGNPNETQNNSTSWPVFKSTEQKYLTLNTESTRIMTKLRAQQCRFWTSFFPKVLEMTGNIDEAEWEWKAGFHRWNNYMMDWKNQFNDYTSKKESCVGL
Description: The progress curves for the time courses of product formation for the hydrolysis of butyrylthiocholine iodide were measured on an Agilent Cary 3500 UV–VIS spectrophotometer with Compact Peltier (thermostated at 25 °C) at 412 nm using a 0.6 mL cuvette (optical path–0.5 cm). 30 mmol/L Tris buffer pH 7.0 with 1 mg/mL BSA and 0.02% NaN3 was used and all dilutions were done in glass vessels (note: dilute hBChE solutions rapidly lose activity, presumably due to adsorption to plastic, preventing meaningful decarbamoylation assays. In our hands, under the above conditions only, the diluted and stock solutions of hBChE were stable for at least a month at room temperature.). Total volume in the cuvette was always 500 μL, and enzyme solutions that gave upon dilution v0 = (dA/dt) ≈ 0.5 (for carbamoylation) and ≈ 1 for (for decarbamoylation) were used. For carbamoylation experiments, 0.5–1 μL of enzyme stock, 5 μL of compound solution, and 484 μL of buffer were preincubated for the specified time, then 10 μL of the mixture of 25 mmol/L Ellman’s reagent (DTNB) and 20 mmol/L butyrylthiocholine (large excess to prevent substrate depletion) were added, quickly mixed, and measurement started. […] The data analysis followed the literature[63]^,[98].

[2] = molecular target: T1, BChE (Mus musculus, UniProt Q03311); test: Cholinesterase inhibition upon repeated dosing, serum BChE; assay type: in vivo, C57BL/6JRccHsd mice; settings: for remaining activity at 1 mg/kg / remaining activity at 5 mg/kg: mouse, po
T1 construct: from tissue; host or cells: mouse serum (C57BL/6JRccHsd)
T1 sequence (Q03311 30-603): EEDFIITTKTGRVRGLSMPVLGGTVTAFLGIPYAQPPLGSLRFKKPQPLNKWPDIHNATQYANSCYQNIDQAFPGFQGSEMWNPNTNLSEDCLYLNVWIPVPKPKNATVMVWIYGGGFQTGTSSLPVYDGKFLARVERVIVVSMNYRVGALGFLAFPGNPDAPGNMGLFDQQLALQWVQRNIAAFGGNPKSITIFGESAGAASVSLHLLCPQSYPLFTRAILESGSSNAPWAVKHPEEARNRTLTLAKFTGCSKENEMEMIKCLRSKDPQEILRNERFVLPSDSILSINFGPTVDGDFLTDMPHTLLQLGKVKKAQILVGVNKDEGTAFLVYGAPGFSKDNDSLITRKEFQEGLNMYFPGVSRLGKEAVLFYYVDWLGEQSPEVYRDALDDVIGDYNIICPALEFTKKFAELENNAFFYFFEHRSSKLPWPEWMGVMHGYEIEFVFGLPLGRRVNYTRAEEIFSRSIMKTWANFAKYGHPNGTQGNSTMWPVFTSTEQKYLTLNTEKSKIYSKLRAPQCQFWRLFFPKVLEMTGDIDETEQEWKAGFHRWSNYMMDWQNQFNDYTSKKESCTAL
Description: The 12 mice used in this pilot study were 9–14 months old male wild-type C57BL/6JRccHsd mice bred in the Laboratory of Animal Genomics at the Faculty of Veterinary Medicine, University of Ljubljana, or purchased from Envigo RMS Holding Corp. Mice were conventionally bred in open polycarbonate cages (Tecniplast, Buguggiate, Italy) and provided with wood chip bedding (Lignocel®, Rettenmaier and Sons, Germany). Mice were kept under standard conditions, including a 12:12 dark–light cycle (LED, CCT 3000 k, with no more than 25 lux above the cage), a temperature range of 21–24 °C, and humidity between 50%–60%. They were fed irradiated rodent diet (Teklad global 16% protein rodent diet®, BN 2916, Envigo, Udine, Italy) and had access to drinkable tap water ad libitum. Due to the nature of this pilot study, the mice were housed individually. The experimental design was evaluated by the National Ethics Committee for Animal Experiments and approved by the Veterinary Administration of the Republic of Slovenia (document no. U34401-10/2021/8, with amendments U34401-10/2021/13 and U34401-10/2021/1).
Before the start of study, blood was drawn from the submandibular vein (facial vein) of the animals under isoflurane inhalation anesthesia (Isoflurin®, VetPharma, Spain) using a 5 mm lancet (Goldenrod Animal Sterile, MEDIpoint, Inc., NY, USA), collected in a microtube (Eppendorf, Safe-Lock tube, 0.5 mL, Eppendorf AG, Germany) and allowed to clot. After approximately 1 h, the blood was centrifuged at 6000 × g for 15 min at 4 °C to obtain the sera, which were stored at –80 °C until analysis.
Seven animals received the 1 mg/kg dose of compound 8, and five animals received the 5 mg/kg dose of compound 8. Compound 8 was prepared as a stock solution in 100% MeCN (5 and 10 mg/mL) and kept refrigerated for the duration of the study. The dosages were prepared as follows: based on the animal’s body weight, a calculated volume of compound 8 stock solution was accurately pipetted onto a cubic piece (approx. 50 mg) of sterilized toast (Ölz multigrain toast, Rudolf Ölz Meisterbäcker GmbH & Co KG, Austria), and left to dry at room temperature for 5 min. Subsequently, 25 μL of 50% sucrose in distilled water were added at the same site to mask the bitter taste of compound 8. These dosage units were prepared twice a week during the study and stored in a closed glass petri dish at room temperature until use. […] Compound 8 was administered in this way for 27 days, eliminating the need for repeated handling and injection. The animals were observed daily for general activity level, hair coat quality or other abnormal behavior or clinical signs.
24 h after the last dose was administered, the mice were humanly euthanized under isoflurane inhalation anesthesia (Isoflurin®, VetPharma, Spain) and the blood was withdrawn from the left ventricle using a syringe, collected in a microtube (Eppendorf, Safe-Lock tube, 0.5 mL, Eppendorf AG, Germany) and allowed to clot. After approximately 1 h, the blood was centrifuged at 6000 × g for 15 min at 4 °C to obtain the sera, which were stored at –80 °C until analysis. […] Animal sera (5–10 μL) were diluted in 0.5 mmol/L DTNB in 0.1 mol/L sodium phosphate buffer pH 7.4 (total volume 1000 μL), substrate (5 μL of 100 mmol/L, final concentration 0.5 mmol/L) was added, and the increase in absorbance monitored for 3 min. BChE activity was determined using butyrylthiocholine iodide, while AChE activity was determined on isoOMPA-inhibited sera (buffer-diluted sera were preincubated for 25 min with 1 μL of 100 mmol/L isoOMPA–0.1 mmol/L final concentration) using acetylthiocholine iodide (final concentration 0.5 mmol/L). Measurements were performed in triplicate and pairwise compared before and after treatment for each subject (n = 5 per group).

[3] = Hydrolysis of 8 in human plasma; assay type: in vitro ADME
Description: See Supporting Information Tables S4.

Structure (SMILES): CCN(CC)C(=O)n1cnc(C2(CC)Cc3ccccc3C2)c1 [Compound 8, N,N-Diethyl-4-(2-ethylindan-2-yl)-1H-imidazole-1-carboxamide]
- Ki [1]: 2820 ± 200 nM
- kcarb, carbamoylation ([1]; 25 °C): 3.7±1.7 min^–1
- ΔG25°C‡, carbamoylation ([1]; 25 °C): 19.1 ± 0.3 kcal/mol
- reactivation period of the carbamoylated enzyme ([1]; Table 2): > 10 days
- prolongation of decarbamoylation phase ([1]; compared to 6): > 15 fold
- BChE residual activity, AVERAGE ([2]; 1 mg/kg p.o. once a day for 4 weeks, compared to before treatment, 1 mg/kg): 21%±6%
- BChE activity AFTER treatment ([2]; 1 mg/kg p.o. once a day, individual animals, 1 mg/kg): 0.2139±0.0118 U/mL and 0.1602±0.0041 U/mL and 0.1484±0.0071 U/mL and 0.2261±0.0071 U/mL and 0.2214±0.0082 U/mL
- BChE residual activity ([2]; 1 mg/kg p.o. once a day, individual animals, after vs before treatment, 1 mg/kg): 27.0%±4.2% and 15.9%±1.1% and 19.4%±1.8% and 20.1%±2.4%
- BChE residual activity, AVERAGE ([2]; 5 mg/kg p.o. once a day for 4 weeks, compared to before treatment, 5 mg/kg): 10%±5%
- BChE activity AFTER treatment ([2]; 5 mg/kg p.o. once a day, individual animals, 5 mg/kg): 0.1060±0.0071 U/mL and 0.0989±0.0071 U/mL and 0.0801±0.0268 U/mL and 0.0683±0.0108 U/mL and 0.0919±0.0000 U/mL
- BChE residual activity ([2]; 5 mg/kg p.o. once a day, individual animals, after vs before treatment, 5 mg/kg): 10.6%±1.7% and 6.9%±2.9% and 12.1%±2.7% and 10.8%±2.1%
- remaining activity at 1 mg/kg ([2]; 1 mg/kg p.o. once a day for 4 weeks, compared to before treatment, read-out: BChE residual activity, AVERAGE): 20.6%
- remaining activity at 1 mg/kg ([2]; 1 mg/kg p.o. once a day, individual animals, after vs before treatment, read-out: BChE residual activity): 20.3%
- remaining activity at 5 mg/kg ([2]; 5 mg/kg p.o. once a day for 4 weeks, compared to before treatment, read-out: BChE residual activity, AVERAGE): 10.1%
- remaining activity at 5 mg/kg ([2]; 5 mg/kg p.o. once a day, individual animals, after vs before treatment, read-out: BChE residual activity): 10.1%
- 8 present after 24 h ([3]; control experiment, plasma pre-treated with BChE-selective covalent inhibitor isoOMPA): > 85%
- half-life at 20 μg/L ([3]; human, plasma, 37 °C, nominal starting concentration 20 μg/L): 300 min
